Measured values: US7014990B2, “Machine perfusion solution for organ and biological tissue preservation” (priority 2000, dated 2006)

Format: physicochemical
Protocol: A machine perfusion solution of the invention may be prepared by combining the components described above with sterile water, such as distilled and/or deionized water. For example, to prepare the solution, approximately 700–900 mL, or preferably about 800 mL, of sterile water is poured into a one liter beaker at approximately room temperature. Although a one liter beaker is used in this example, any other container of any size may be used to prepare the solution, where the component amounts would be adjusted accordingly. In the most preferred embodiment, the following are added, in any order, to the solution and each is mixed until dissolved in the solution: approximately […] sodium gluconate, approximately […] potassium phosphate, approximately […] adenine, approximately […] of ribose, approximately […] of calcium chloride, and approximately 50 g modified pentastarch. The modified pentastarch is a fractionated colloid mixture of 40–60 kDaltons in diameter and is modified by infusing the pentastarch under 3 atm of pressure through a dialyzing filter with a bore size of about 40–60 kDaltons. About […] magnesium gluconate, approximately […] HEPES, approximately […] glucose, and approximately […] mannitol are also added, in any order, and mixed. Approximately 40 U of insulin is also added. […]

half-life lengthened by a multiple: about 15
Structure (SMILES): CCCCC[C@H](O)/C=C/[C@H]1[C@H](O)CC(=O)[C@@H]1CCCCCCC(=O)O [modified PGE1, prostaglandin E1]
